# In patent publication US9765299B2, “Chemically defined albumin-free conditions for cardiomyocyte differentiation of human pluripotent stem cells” (Wisconsin Alumni Research Foundation, priority 2014, dated 2017):
# Tests used:
# hPSCs = assay: Cell death of hPSCs on Gsk3 inhibitor treatment in albumin-free medium; type: cell-based, human
# Procedure: hPSCs maintained on a Synthemax-coated surface in E8 or mTeSR1 medium were dissociated into single cells with Accutase® (Life Technologies) at 37° C. for 5 min and then seeded onto a Synthemax-coated cell culture dish at 100,000-200,000 cell/cm^2 in E8 supplemented with 5 μM ROCK inhibitor Y-27632 (Selleckchem)(day −2) for 24 hours. Cells were then cultured in E8, changed daily. […] At day 0 the cell density should be between 250,000 and 400,000 cells/cm^2. At day 3, half the medium was changed to fresh RPMI medium containing 2.5 μM IWP2 (Tocris). At day 5, the entire medium was changed with RPMI medium. Cells were maintained in the cardiomyocyte maintenance medium (CMM: RPMI supplemented with 10 μg/ml insulin (sigma) and 200 μg/ml L-Ascorbic acid 2-phosphate sesquimagnesium salt hydrate (sigma)) starting from day 7, with the medium changed every 2 days.
# [1] = tested on: brachyury expression in ES03 hESCs; assay: Brachyury expression (mesendoderm induction) by western blot and immunostaining; type: cell-based, human
# Procedure: Cells were fixed with 4% paraformaldehyde for 15 min at room temperature and then stained with primary and secondary antibodies (Table 3) in PBS plus 0.4% Triton X-100 and 5% non-fat dry milk (Bio-Rad). Nuclei were stained with Gold Anti-fade Reagent with DAPI (Invitrogen). An epifluorescence microscope (Leica DM IRB) with a QImaging® Retiga 4000R camera was used for imaging analysis. Cells were lysed in M-PER Mammalian Protein Extraction Reagent (Pierce) in the presence of Halt Protease and Phosphatase Inhibitor Cocktail (Pierce). Proteins were separated by 10% Tris-Glycine SDS/PAGE (Invitrogen) under denaturing conditions and transferred to a nitrocellulose membrane. After blocking with 5% dried milk in TBST, the membrane was incubated with primary antibody overnight at 4° C. The membrane was then washed, incubated with an anti-mouse/rabbit peroxidase-conjugated secondary antibody (Table 3) at room temperature for 1 hour, and developed by SuperSignal chemiluminescence (Pierce).
smiles,measurement,setting,value
Cc1c[nH]c(-c2cnc(NCCNc3ccc(C#N)cn3)nc2-c2ccc(Cl)cc2Cl)n1 [CH],cell death,"hPSCs; 12 μM at day 0, by 24 hr, absence of BSA",prolific cell death
same,cell death,"hPSCs; same concentration of CH as Burridge et al., 2 days, albumin-free medium",substantial cell death
same,brachyury expression,"[1]; 6 μM CH, albumin-free RPMI, after 24 hr",induced robust brachyury expression
same,brachyury expression,"[1]; 30 μM CH, medium containing 1% HRA",induced brachyury expression
same,brachyury expression,"[1]; CH concentrations up to 6 μM, presence of 1% human recombinant albumin (HRA)",unable to induce brachyury expression
